The record followed here is PubChem BioAssay (NCI).

Structures are written as SMILES. Where “and” joins values, the source holds several entries; their conditions need not be identical. Equal values may be shown once.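 All cell lines were grown in 96-well plates and treated with compound for 48 hours. GI50 marks 50% less growth. The concentration for full growth arrest is given as TGI.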

Among the test systems are UO-31 renal; CAKI-1 renal; COLO 205 colon; IGROV1 ovarian; OVCAR-4 ovarian; BT-549 breast; SF-268 CNS; NCI-H226 lung; HT29 colon; HOP-92 NSCLC; EKVX NSCLC; 786-0 renal; A498 renal; DU-145 prostate.
Holding throughout (test): NCI-60 cell line screen, 48 h

Consider `NC(Cc1ccc(O)cn1)C(=O)NC(C(=O)O)c1ccccc1` (centres undefined), for which the TGI in the experiment on UO-31 renal, with CAKI-1 renal, in the experiment on COLO 205 colon, with IGROV1 ovarian, in the experiment with OVCAR-4 ovarian and with BT-549 breast was above 100 µM in each case. The TGI in the experiment with SF-268 CNS, in the experiment on NCI-H226 lung, in the experiment with HT29 colon, with HOP-92 NSCLC, in the experiment on EKVX NSCLC and in the experiment on 786-0 renal was above 100 µM in each case. For the same compound, the TGI in the experiment with A498 renal and in the experiment on DU-145 prostate was above 100 µM in each case.

For `CCN(CC)CCNc1c2ccccc2nc2cccc([N+](=O)[O-])c12`, the GI50 in the experiment on UO-31 renal is 71.2 nM; in the experiment on OVCAR-4 ovarian, 27.9 nM; in the experiment with SF-268 CNS, 19.3 nM; with EKVX NSCLC it was 29 nM. The TGI in the experiment on UO-31 renal is 0.0412 µM and 0.252 µM; in the experiment with CAKI-1 renal, 0.0254 µM and 0.0721 µM; in the experiment on COLO 205 colon it was 0.0176 µM; in the experiment with IGROV1 ovarian, 0.0267 µM; in the experiment with OVCAR-4 ovarian, 0.0289 µM and 0.178 µM; in the experiment with BT-549 breast it was 0.0187 µM. Moreover, the TGI in the experiment with SF-268 CNS was 0.056 µM and 0.42 µM; in the experiment on NCI-H226 lung it was 0.0553 µM; in the experiment with HT29 colon, 0.0408 µM and 0.0455 µM; in the experiment with HOP-92 NSCLC it was 0.0261 µM; with EKVX NSCLC, 0.0298 µM and 0.08 µM; in the experiment with 786-0 renal, 0.0266 µM and 0.0489 µM. In addition, the TGI with A498 renal is 0.014 µM; in the experiment on DU-145 prostate it was 0.0146 µM.

As to `CC12NC(=C(C#N)C#N)C(C#N)=C3NC(N)=C(C#N)C(=C31)Oc1ccccc12` (centres undefined), the TGI in the experiment with UO-31 renal, in the experiment with CAKI-1 renal, in the experiment on COLO 205 colon, in the experiment with IGROV1 ovarian, in the experiment with OVCAR-4 ovarian and with BT-549 breast was above 100 µM in each case. Also, the TGI in the experiment with SF-268 CNS was above 100 µM; in the experiment on NCI-H226 lung, above 100 µM; in the experiment with HT29 colon, above 100 µM; in the experiment on HOP-92 NSCLC it was above 74.1 µM; with EKVX NSCLC, above 100 µM; with 786-0 renal, above 100 µM. The TGI with A498 renal and in the experiment on DU-145 prostate was above 100 µM each time.

Regarding `COc1ccccc1N1CCN(CCCCNC(=O)c2ccc([N+](=O)[O-])o2)CC1`, the TGI in the experiment with UO-31 renal came to 23.2 µM; in the experiment on CAKI-1 renal, 40.5 µM; with COLO 205 colon it was 6.79 µM; in the experiment on IGROV1 ovarian, 28.9 µM; in the experiment with OVCAR-4 ovarian, 28.9 µM; in the experiment on BT-549 breast it was 14.7 µM. The TGI in the experiment on SF-268 CNS was 35.4 µM; in the experiment on NCI-H226 lung, 29.4 µM; in the experiment with HT29 colon it was 9.92 µM; in the experiment on HOP-92 NSCLC, 40.4 µM; in the experiment with EKVX NSCLC, 34.2 µM; in the experiment with 786-0 renal it was 21.4 µM. Further, the TGI with A498 renal came out at 22.8 µM; with DU-145 prostate, 16.4 µM.

Consider `COc1ccc2[nH]c3cc4c(=O)c5cc(OC)ccc5[nH]c4cc3c(=O)c2c1`, for which the TGI in the experiment with UO-31 renal, with CAKI-1 renal, in the experiment on COLO 205 colon, with IGROV1 ovarian, with OVCAR-4 ovarian and in the experiment with BT-549 breast was above 100 µM throughout. The TGI in the experiment on SF-268 CNS, in the experiment on NCI-H226 lung, in the experiment on HT29 colon, in the experiment on HOP-92 NSCLC, in the experiment with EKVX NSCLC and in the experiment on 786-0 renal was above 100 µM each time. Besides, the TGI in the experiment on A498 renal and with DU-145 prostate was above 100 µM each time.

With `Cc1cccc2c(N)c3cccc(C(=O)NCC[N+](C)(C)Cc4ccc([N+](=O)[O-])n4C)c3nc12`, the TGI with UO-31 renal is 74.7 µM; with CAKI-1 renal, above 51.2 µM; with COLO 205 colon it was 66.7 µM; in the experiment on IGROV1 ovarian, 58.4 µM; with OVCAR-4 ovarian, above 74.7 µM; with BT-549 breast, above 71.3 µM. In addition, the TGI in the experiment with SF-268 CNS was 61.9 µM; with NCI-H226 lung, 53.3 µM; in the experiment with HT29 colon it was 59 µM; in the experiment with HOP-92 NSCLC it was above 100 µM; in the experiment on EKVX NSCLC, above 100 µM; in the experiment with 786-0 renal, above 63.9 µM. Moreover, the TGI in the experiment on A498 renal is above 63.1 µM; in the experiment with DU-145 prostate, above 75.3 µM.

As for `CC(=O)C(N1CCCCC1)C(O)(C(F)(F)F)C(F)(F)F` (centres undefined), the TGI in the experiment with UO-31 renal, in the experiment on CAKI-1 renal, in the experiment with COLO 205 colon, in the experiment with IGROV1 ovarian, with OVCAR-4 ovarian and in the experiment with BT-549 breast was above 100 µM throughout. Also, the TGI in the experiment with NCI-H226 lung, in the experiment with HT29 colon, in the experiment with HOP-92 NSCLC, in the experiment on EKVX NSCLC, in the experiment with 786-0 renal and in the experiment with A498 renal was above 100 µM each time. The compound further yielded a TGI in the experiment with DU-145 prostate above 100 µM.

As to `CCO/C(O)=C(/C(=N)N1CCOCC1)C(=O)Nc1cccc(C(F)(F)F)c1`, the TGI with CAKI-1 renal, in the experiment with COLO 205 colon, in the experiment with IGROV1 ovarian, in the experiment on OVCAR-4 ovarian, with BT-549 breast and in the experiment with SF-268 CNS was above 100 µM each time. The TGI with NCI-H226 lung, in the experiment on HT29 colon, in the experiment with HOP-92 NSCLC, with EKVX NSCLC, in the experiment on 786-0 renal and with A498 renal was above 100 µM in each case. The same compound registered a TGI with DU-145 prostate above 100 µM.
